# Measurements published in patent US20030166673A1, “Medicines for the prevention and treatment of neurodegenerative diseases” (priority 2001, published 2003).
# Values joined by “and” are separate entries in the source; they are usually repeats but may differ in a detail not shown here. Equal values may be shown once.
# Test system: vacuolized neurons in the PC/RS cortex (MK-801-induced neuronopathy)
# Assay: Inhibitory effect on MK-801-induced neurodegeneration (number of vacuolized neurons)
# Assay type: in vivo, mice (Std-ddY male)
# Experimental: The pharmacological test was carried out according to the method of D. F. Wozniak, et al. [Brain Research, Vol. 707, pp 165-178 (1996)].
# The cerebrum was cut transversely from the anterior termination at approximately 4 mm to the posterior termination, and then embedded in cold polymerized resin (Technovit7100, manufactured by Kulzer in Germany). The slices containing the PC/RS cortex were obtained at four Anterior-Posterior levels at intervals of 300 μm from the exposed section of the block, and at each level two slices (3 μm in thickness) were consecutively obtained. The histological change (on Hematoxylin and eosin stain specimen) and the number of vacuolized neurons (on Nissl stain specimen) were observed by a light microscope for each 4 slices, respectively.
# [1] = individual mouse, Compound A 1 mg/kg p.o. 30 min before MK-801 1 mg/kg s.c., 5 h after MK-801, PC/RS cortex
compound,measurement,setting,value
"COc1cccc(-c2nccc3[nH]c(=O)c(-c4noc(C)n4)cc23)c1 [Compound A, 3-(5-Methyl-1,2,4-oxadiazol-3-yl)-5-(3-methoxyphenyl)-1,6-naphthyridin-2(1H)-one]","Vacuolization, Mean(/slice) Group","group mean of three mice, Compound A 1 mg/kg p.o. + MK-801 1 mg/kg s.c., 5 h",4.3 /slice
same,"Vacuolization, Slice No. 1",[1],0 (2×) and 20
same,"Vacuolization, Slice No. 2",[1],0 (2×) and 12
same,"Vacuolization, Slice No. 3",[1],0 and 10 and 2
same,"Vacuolization, Slice No. 4",[1],0 and 5 and 2
same,"Vacuolization, Mean(/slice) Individual","mean of 4 slices per mouse, Compound A 1 mg/kg p.o. + MK-801 1 mg/kg s.c., 5 h",0.0 /slice and 11.8 /slice and 1.0 /slice
same,retardation or inhibition of neurodegeneration in the PC/RS cortex induced by MK-801 (in words),"mice, Compound A 1 mg/kg p.o. before MK-801 1 mg/kg s.c.",potent retardation or inhibition of neurodegeneration
